For eleven compounds, Ki results are on record in BindingDB's records for doi:10.1021/bi9016928 (Uppsala University, 2009).

SMILES strings stand for the structures. Starred links: 1 amine or outer side, 2 acyl side, 3 side chain; linkers in the order of their positions; H or OH if unused. Non-standard residues stand in square brackets, D forms with d. Residues, ends and D or L forms follow the SMILES beside them. ξ: configuration not given here. Dip = N[C@H](C(=O)O)C(c1ccccc1)c1ccccc1; 2Nal = N[C@@H](Cc1ccc2ccccc2c1)C(=O)O; Cha = N[C@@H](CC1CCCCC1)C(=O)O; Ile(3ξ) = CCC(C)[C@H](N)C(=O)O; Chg = N[C@H](C(=O)O)C1CCCCC1; Suc = O=C(CCC(=O)[*:2])[*:1]

For orientation: Ki means a dissociation constant, usually derived from enzyme kinetics or from competition with a known ligand. A lower Ki goes with a stronger hold on the target.

The target of this assay is T1, Genome polyprotein (Hepacivirus hominis, UniProt Q04045).
T1 sequence (Q04045 whole entry): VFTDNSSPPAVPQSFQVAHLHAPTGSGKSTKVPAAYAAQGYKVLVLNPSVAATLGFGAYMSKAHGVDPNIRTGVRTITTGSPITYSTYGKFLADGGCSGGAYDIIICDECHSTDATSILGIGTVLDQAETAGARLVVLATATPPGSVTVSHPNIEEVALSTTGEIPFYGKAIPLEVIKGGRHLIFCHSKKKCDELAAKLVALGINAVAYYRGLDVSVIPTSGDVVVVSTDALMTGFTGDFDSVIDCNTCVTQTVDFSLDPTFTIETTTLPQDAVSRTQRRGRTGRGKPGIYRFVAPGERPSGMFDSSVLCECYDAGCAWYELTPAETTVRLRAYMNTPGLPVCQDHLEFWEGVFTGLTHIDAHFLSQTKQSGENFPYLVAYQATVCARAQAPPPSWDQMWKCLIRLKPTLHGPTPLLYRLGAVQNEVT
The assay is described as follows: Competitive Inhibition Assay. How it is done:
Analysis of the inhibition activation of flNS3 by the inhibitors was performed with the standard assay, allowing the inhibitor to preincubate with NS3 and NS4 for 15 min. prior to addition of substrate.
In turn, `O=C(O)CCC(=O)N[C@H](C(=O)N[C@@H](CCC(=O)O)C(=O)N[C@@H](CC1CCCCC1)C(=O)N[C@@H](CS)C(=O)O)C1CCCCC1` [NS3 Protease Inhibitor, 4] (Suc-[Chg]E[Cha]C-OH) had a Ki of 150 nM.

`O=C(O)CCC(=O)N[C@H](C(=O)N[C@@H](CCC(=O)O)C(=O)N[C@@H](Cc1ccc2ccccc2c1)C(=O)N[C@@H](CS)C(=O)O)C1CCCCC1` [NS3 Protease Inhibitor, 2] (Suc-[Chg]E[2Nal]C-OH) gave a Ki of 180 nM.

In turn, `O=C(O)CCC(=O)N[C@H](C(=O)N[C@@H](CCC(=O)O)C(=O)N[C@@H](CCC(=O)O)C(=O)N[C@@H](CS)C(=O)O)C(c1ccccc1)c1ccccc1` [NS3 Protease Inhibitor, 3] (Suc-[Dip]EEC-OH) yielded a Ki of 520 nM.

Turning to `COc1ccc2c(O[C@@H]3C[C@H]4C(=O)N[C@]5(C(=O)O)C[C@H]5/C=C\CCCCC[C@H](NC(=O)OC5CCCC5)C(=O)N4C3)cc(-c3csc(NC(C)C)n3)nc2c1`, the affinity corresponds to a Ki of 0.12 nM.

Compound `C=CC1C[C@]1(NC(=O)[C@@H](NC(=O)C(NC(=O)OC(C)(C)C)C(C)C)c1ccc(Oc2cc(-c3ccccc3)nc3cc(OC)ccc23)cc1)C(=O)NS(=O)(=O)c1ccccc1` (stereo partly specified) [NS3 Protease Inhibitor, 7] had a Ki of 290 nM.

`CCC(C)[C@H](NC(=O)[C@@H](NC(=O)CCC(=O)O)C1CCCCC1)C(=O)N[C@@H](CC1CCCCC1)C(=O)N[C@@H](CS)C(=O)O` (stereo partly specified) [NS3 Protease Inhibitor, 1] (Suc-[Chg][Ile(3ξ)][Cha]C-OH) had a Ki of 330 nM.

`CCC[C@H](NC(=O)[C@@H]1C[C@@H](Oc2cc(-c3ccccc3)nc3cc(OC)ccc23)CN1C(=O)[C@@H](NC(=O)OC(C)(C)C)C(C)C)C(=O)NS(=O)(=O)c1ccccc1` [NS3 Protease Inhibitor, 8]: the Ki came to 170 nM.

In the case of `COc1ccc2c(O[C@@H]3C[C@@H](C(=O)NC4(C(=O)O)CC4)N(C(=O)[C@@H](NC(=O)OC(C)(C)C)C(C)C)C3)cc(-c3ccccc3)nc2c1` [NS3 Protease Inhibitor, 6], the affinity, expressed as Ki, was 1100 nM.

Compound `C=CC1C[C@]1(NC(=O)[C@@H]1C[C@@H](Oc2cc(-c3ccccc3)nc3cc(OC)ccc23)CN1C(=O)[C@@H](NC(=O)OC(C)(C)C)C(C)C)C(=O)O` (stereo partly specified) [NS3 Protease Inhibitor, 9] showed a Ki of 15 nM.

`CC(=O)N[C@H](C(=O)N[C@@H](CCC(=O)O)C(=O)N[C@@H](Cc1ccc2ccccc2c1)C(=O)N[C@@H](CS)C(=O)O)C1CCCCC1` [NS3 Protease Inhibitor, 5] (Ac-[Chg]E[2Nal]C-OH): the Ki turned out to be 500 nM.

For `C=CC1C[C@]1(NC(=O)[C@@H]1C[C@@H](Oc2cc(-c3ccccc3)nc3cc(OC)ccc23)CN1C(=O)[C@@H](NC(=O)OC(C)(C)C)C(C)C)C(=O)NS(=O)(=O)c1ccccc1` (stereo partly specified) [NS3 Protease Inhibitor, 10], affinity was put at a Ki of 0.22 nM.
